Data reported in PubChem BioAssay AID1963843 (Molecular Pharmacology Branch, DTP, NCI, 2024).

System: 616215-338-R-J1-PDC complex spheroid viability
Experiment: Anticancer human tumor 616215-338-R-J1-PDC patient-derived colon adenocarcinoma cell line growth inhibition [POLQ]
Conditions: for IC50: curve of first compound; for viability, T/C: stronger effect = lower value
Procedure, shortened: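 Complex spheroid viability model combining PDC tumour cells with endothelial (HUVEC) and MSC stromal cells. Novobiocin, ART-558 or RP6685 were tested singly and in combination with standard and investigational anticancer drugs. Each was titrated in half-log steps from near clinical Cmax, or from 10 microM where Cmax was unknown.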

[1] = second compound 0.0316 µM, first compound 0.0316 µM
[2] = second compound 0.0316 µM, first compound 0.1 µM
[3] = second compound 0.0316 µM, first compound 0.316 µM
[4] = second compound 0.0316 µM, first compound 1 µM
[5] = second compound 0.0316 µM, first compound 3.16 µM
[6] = second compound 0.0316 µM, first compound 10 µM
[7] = second compound 0.1 µM, first compound 0.0316 µM
[8] = second compound 0.1 µM, first compound 0.1 µM
[9] = second compound 0.1 µM, first compound 0.316 µM
[10] = second compound 0.1 µM, first compound 1 µM
[11] = second compound 0.1 µM, first compound 3.16 µM
[12] = second compound 0.1 µM, first compound 10 µM
[13] = second compound 0.316 µM, first compound 0.0316 µM
[14] = second compound 0.316 µM, first compound 0.1 µM
[15] = second compound 0.316 µM, first compound 0.316 µM
[16] = second compound 0.316 µM, first compound 1 µM
[17] = second compound 0.316 µM, first compound 3.16 µM
[18] = second compound 0.316 µM, first compound 10 µM
[19] = second compound 1 µM, first compound 0.0316 µM
[20] = second compound 1 µM, first compound 0.1 µM
[21] = second compound 1 µM, first compound 0.316 µM
[22] = second compound 1 µM, first compound 1 µM
[23] = second compound 1 µM, first compound 3.16 µM
[24] = second compound 1 µM, first compound 10 µM
[25] = second compound 3.16 µM, first compound 0.0316 µM
[26] = second compound 3.16 µM, first compound 0.1 µM
[27] = second compound 3.16 µM, first compound 0.316 µM
[28] = second compound 3.16 µM, first compound 1 µM
[29] = second compound 3.16 µM, first compound 3.16 µM
[30] = second compound 3.16 µM, first compound 10 µM
[31] = second compound 10 µM, first compound 0.0316 µM
[32] = second compound 10 µM, first compound 0.1 µM
[33] = second compound 10 µM, first compound 0.316 µM
[34] = second compound 10 µM, first compound 1 µM
[35] = second compound 10 µM, first compound 3.16 µM
[36] = second compound 10 µM, first compound 10 µM
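Further: spheroids exposed to compounds for one week before readout.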
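Wherever viability, T/C is given: percent viability relative to DMSO vehicle wells taken as 100%.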

C=CC(=O)N1CCN(c2nc(=O)n(-c3c(C)ccnc3C(C)C)c3nc(-c4c(O)cccc4F)c(F)cc23)C(C)C1 (centres undefined) + Cc1cccc(N(C)C(=O)C2C(O)CCN2c2nc(C)cc(C(F)(F)F)c2C#N)c1
IC50 (second compound 0.0316 µM): > 10 µM
IC50 (second compound 0.1 µM): > 10 µM
IC50 (second compound 0.316 µM): > 10 µM
IC50 (second compound 1 µM): > 10 µM
IC50 (second compound 3.16 µM): > 10 µM
IC50 (second compound 10 µM): > 10 µM
viability, T/C [1]: 102%
viability, T/C [2]: 95.3%
viability, T/C [3]: 95.8%
viability, T/C [4]: 109%
viability, T/C [5]: 100%
viability, T/C [6]: 98.3%
viability, T/C [7]: 95.6%
viability, T/C [8]: 95.3%
viability, T/C [9]: 88.2%
viability, T/C [10]: 105%
viability, T/C [11]: 104%
viability, T/C [12]: 90.3%
viability, T/C [13]: 93.8%
viability, T/C [14]: 99.2%
viability, T/C [15]: 99.6%
viability, T/C [16]: 104%
viability, T/C [17]: 108%
viability, T/C [18]: 97%
viability, T/C [19]: 96.7%
viability, T/C [20]: 86%
viability, T/C [21]: 88.1%
viability, T/C [22]: 101%
viability, T/C [23]: 105%
viability, T/C [24]: 86.2%
viability, T/C [25]: 96.6%
viability, T/C [26]: 122%
viability, T/C [27]: 103%
viability, T/C [28]: 101%
viability, T/C [29]: 97.6%
viability, T/C [30]: 91.6%
viability, T/C [31]: 105%
viability, T/C [32]: 99.6%
viability, T/C [33]: 90.9%
viability, T/C [34]: 104%
viability, T/C [35]: 95.3%
viability, T/C [36]: 73%

CC(C)n1c(=O)n(C)c2cnc3cc(F)c(-c4ccc(OCCCN5CCCCC5)nc4)cc3c21 + Cc1cccc(N(C)C(=O)C2C(O)CCN2c2nc(C)cc(C(F)(F)F)c2C#N)c1
IC50 (second compound 0.0316 µM): > 10 µM
IC50 (second compound 0.1 µM): > 10 µM
IC50 (second compound 0.316 µM): > 10 µM
IC50 (second compound 1 µM): > 10 µM
IC50 (second compound 3.16 µM): > 10 µM
IC50 (second compound 10 µM): > 10 µM
viability, T/C [1]: 95.4%
viability, T/C [2]: 98.2%
viability, T/C [3]: 99.1%
viability, T/C [4]: 111%
viability, T/C [5]: 108%
viability, T/C [6]: 114%
viability, T/C [7]: 109%
viability, T/C [8]: 113%
viability, T/C [9]: 106%
viability, T/C [10]: 102%
viability, T/C [11]: 105%
viability, T/C [12]: 105%
viability, T/C [13]: 102%
viability, T/C [14]: 97.8%
viability, T/C [15]: 94.5%
viability, T/C [16]: 107%
viability, T/C [17]: 117%
viability, T/C [18]: 103%
viability, T/C [19]: 101%
viability, T/C [20]: 99.8%
viability, T/C [21]: 102%
viability, T/C [22]: 117%
viability, T/C [23]: 114%
viability, T/C [24]: 113%
viability, T/C [25]: 105%
viability, T/C [26]: 101%
viability, T/C [27]: 108%
viability, T/C [28]: 114%
viability, T/C [29]: 108%
viability, T/C [30]: 102%
viability, T/C [31]: 108%
viability, T/C [32]: 114%
viability, T/C [33]: 105%
viability, T/C [34]: 109%
viability, T/C [35]: 108%
viability, T/C [36]: 95.4%
